Laboratory results as given in patent US20080234304A1, “N3-Pyridyl-Thiamine And Its Use In Cancer Treatments” (AVEO PHARMACEUTICALS, INC., priority 2004, published 2008).
“Also recorded” adds a separate entry of the source.

Legend:
[1] = molecular target: T1, glucose-6-phosphate dehydrogenase (G6PDH) (Mus musculus, UniProt Q00612); experiment: G6PDH activity in blood and tissues of N3PT-treated mice; type: in vivo
T1 construct: (G6PDH) in blood, spleen and brain after a single dose of N3PT in mice; from tissue; host or cells: blood, spleen and brain of Balb C nude mice

[2] = system: LAMA84; experiment: inhibition of proliferation of LAMA84 cells; type: cell-based; conditions: LAMA84 chronic myeloid leukemia cell line
Description: The ability of N3PT to inhibit proliferation of these cell lines was then tested. LAMA84 was the most sensitive to N3PT, displaying an IC50 of 0.3 μM. The other cell lines, HCT116 and K562, were less sensitive, displaying an IC50 of approximately 2 μM in both cases. LAMA84 also had the highest TK activity (per cell) among these three cancer lines.

[3] = molecular target: T2, alpha-ketoglutarate dehydrogenase (kGDH) (Homo sapiens, UniProt Q02218); experiment: kGDH activity in extracts from cells incubated with N3PT; type: cell-based; conditions: extracts from cells incubated with increasing concentrations of N3PT; read-out: IC50 kGDH (selectivity comparison, FIG. 9)
T2 construct: endogenous in cells
T2 sequence (Q02218 41-1023): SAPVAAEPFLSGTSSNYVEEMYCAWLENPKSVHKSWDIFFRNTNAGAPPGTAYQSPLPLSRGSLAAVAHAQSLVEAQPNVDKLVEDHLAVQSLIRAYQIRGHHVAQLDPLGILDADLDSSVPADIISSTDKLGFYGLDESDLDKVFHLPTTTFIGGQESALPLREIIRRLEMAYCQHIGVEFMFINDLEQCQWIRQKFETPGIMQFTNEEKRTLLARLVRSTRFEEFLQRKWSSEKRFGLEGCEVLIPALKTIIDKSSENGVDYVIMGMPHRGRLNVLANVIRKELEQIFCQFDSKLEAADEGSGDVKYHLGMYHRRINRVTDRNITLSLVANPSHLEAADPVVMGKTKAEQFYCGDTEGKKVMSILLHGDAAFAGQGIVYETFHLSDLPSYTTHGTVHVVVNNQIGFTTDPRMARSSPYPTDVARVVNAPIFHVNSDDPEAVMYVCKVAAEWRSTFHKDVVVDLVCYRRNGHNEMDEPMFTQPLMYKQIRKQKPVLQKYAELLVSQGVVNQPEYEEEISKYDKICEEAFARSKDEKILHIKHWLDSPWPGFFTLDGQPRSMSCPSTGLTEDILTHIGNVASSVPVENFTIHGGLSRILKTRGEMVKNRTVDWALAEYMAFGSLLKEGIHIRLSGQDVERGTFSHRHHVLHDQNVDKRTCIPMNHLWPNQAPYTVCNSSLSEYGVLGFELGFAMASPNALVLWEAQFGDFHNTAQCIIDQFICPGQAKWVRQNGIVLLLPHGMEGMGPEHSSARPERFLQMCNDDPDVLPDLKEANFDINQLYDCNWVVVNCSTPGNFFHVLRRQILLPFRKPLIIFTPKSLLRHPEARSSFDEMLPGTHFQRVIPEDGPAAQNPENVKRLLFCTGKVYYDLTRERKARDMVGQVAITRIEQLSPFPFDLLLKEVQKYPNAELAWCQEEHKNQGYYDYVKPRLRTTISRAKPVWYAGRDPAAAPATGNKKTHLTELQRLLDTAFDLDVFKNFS
T2 sequence (P36957 68-453 partner): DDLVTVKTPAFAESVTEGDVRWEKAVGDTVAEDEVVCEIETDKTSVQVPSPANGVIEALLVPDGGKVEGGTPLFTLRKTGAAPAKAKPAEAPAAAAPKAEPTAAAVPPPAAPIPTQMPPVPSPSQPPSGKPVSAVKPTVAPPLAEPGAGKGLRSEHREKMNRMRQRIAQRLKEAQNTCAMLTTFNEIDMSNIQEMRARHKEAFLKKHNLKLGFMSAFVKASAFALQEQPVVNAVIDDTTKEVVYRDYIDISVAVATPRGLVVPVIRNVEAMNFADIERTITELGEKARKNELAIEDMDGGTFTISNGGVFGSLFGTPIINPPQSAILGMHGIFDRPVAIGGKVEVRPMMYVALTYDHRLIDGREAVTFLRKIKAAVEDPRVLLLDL
T2 sequence (P09622 36-509 partner): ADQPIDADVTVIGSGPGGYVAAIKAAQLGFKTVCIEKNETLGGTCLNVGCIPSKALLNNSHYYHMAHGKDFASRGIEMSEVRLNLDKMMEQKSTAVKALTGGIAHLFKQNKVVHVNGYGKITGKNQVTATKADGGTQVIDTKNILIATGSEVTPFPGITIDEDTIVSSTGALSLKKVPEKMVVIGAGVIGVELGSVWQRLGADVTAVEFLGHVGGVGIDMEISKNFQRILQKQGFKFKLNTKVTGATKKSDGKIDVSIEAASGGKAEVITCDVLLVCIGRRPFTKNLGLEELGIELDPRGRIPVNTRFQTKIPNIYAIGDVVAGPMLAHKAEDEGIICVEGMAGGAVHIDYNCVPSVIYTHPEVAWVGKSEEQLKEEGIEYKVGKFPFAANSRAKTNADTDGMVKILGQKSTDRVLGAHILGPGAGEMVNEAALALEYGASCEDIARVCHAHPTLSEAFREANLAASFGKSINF
Description: TK, kGDH and PDH enzymes all utilize thiamine pyrophosphate (TPP) as a co-factor for their catalysis. Conventional cell culture media (e.g., DMEM, RPMI) have high levels of thiamine (12 μM and 3 μM, respectively). High thiamine levels will mask the inhibitory effect of N3PT. Thus, to measure the IC50 of N3PT, a thiamine depleted DMEM, containing all the ingredients of normal DMEM except for thiamine (HyClone, custom order), was used. Thiamine-depleted media (TDM) is made up with thiamine-depleted DMEM, 10% FBS, which contains low amounts of thiamine (estimated to be ˜3-5 nM) and 1% Penicillin-streptomycin.
Log-phase growing cells were trypsinized and resuspended in TDM. Twenty-four hours after seeding, 5 μl of 20× N3PT compound stock solution was added to the cells in 95 μl of TDM. After increasing times of N3PT treatment, cells were either subjected to enzymatic reactions directly or were frozen at −20° C. for future assays. […] TK activities could be measured from ≧5000 cells in most cell lines tested. […]
Enzymatic inhibition was expressed as percent of control cells that were not treated with compounds. […]

T1 sequence (Q00612 whole entry): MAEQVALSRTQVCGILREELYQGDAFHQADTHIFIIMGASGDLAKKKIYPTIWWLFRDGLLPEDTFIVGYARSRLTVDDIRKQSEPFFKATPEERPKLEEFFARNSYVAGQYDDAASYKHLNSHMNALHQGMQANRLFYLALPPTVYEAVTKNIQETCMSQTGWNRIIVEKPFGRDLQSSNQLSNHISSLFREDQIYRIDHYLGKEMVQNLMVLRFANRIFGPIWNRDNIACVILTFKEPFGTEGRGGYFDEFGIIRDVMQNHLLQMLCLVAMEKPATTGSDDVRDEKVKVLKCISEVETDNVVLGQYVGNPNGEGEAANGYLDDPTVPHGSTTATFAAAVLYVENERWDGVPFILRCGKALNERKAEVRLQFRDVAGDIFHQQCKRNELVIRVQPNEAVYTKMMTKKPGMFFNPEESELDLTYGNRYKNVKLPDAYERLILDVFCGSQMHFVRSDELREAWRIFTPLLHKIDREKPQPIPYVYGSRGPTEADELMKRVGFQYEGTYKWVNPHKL

## Cc1ccc(C[n+]2csc(CCO)c2C)c(N)n1 [N3PT, 3-[(2-amino-6-methyl-3-pyridinyl)methyl]-5-(2-hydroxyethyl)-4-methyl thiazolium]
[1]; 200 mg/kg/day, % of vehicle average
  G6PDH activity after repeated treatment: no effect on G6PDH activity
[1]; single dose 100 mg/kg i.p., blood, spleen, brain, 0-120 hr, 100 mg/kg
  G6PDH activity after single dose: no effect on G6PDH in vivo; also recorded: little or no effect
[2]
  IC50: 300 nM
[3]
  IC50: 86 nM
